Patent US20250127801A1, “BRIDGED TRICYCLIC CARBAMOYLPYRIDONE COMPOUNDS AND USES THEREOF” (priority 2023, published 2025)
≈ marks a conversion by molar mass, not a printed value. Where two headings read alike, the source gives them in different places.

Tests used:
[1] = physchem; conditions: 23 °C, thermodynamic from solid; for solubility thermodynamic at 24 h: FaSSIF; for solubility thermodynamic: fassif
[2] = in vitro; conditions: human; for CC50 at 5 days: uninfected MT-4 cells
[3] = test system: HIV-1 (IIIB); assay: microbe, parasite or virus in culture; assay type: cell-based
[4] = Human immunodeficiency virus 1, MT4, 120 h, HIV-1 (IIIB) replication in MT-4 cells, 5 days incubation, Cell Titer Glo, read-out: MT4 EC50
[5] = Human immunodeficiency virus 1, IIIB, MT4, 120 h, read-out: MT4 EC50 (nM)

SMILES	solubility thermodynamic at 24 h [1] [µg/mL]	CC50 at 5 days [2] [nM]	EC50 [3, 4] [nM]	solubility thermodynamic [1] [µg/mL]	CC50 [2] [nM]	EC50 [3, 5] [nM]
CCCCCCCCCCCCCC(=O)Oc1ccc(C(=O)Oc2c3n(cc(C(=O)NCc4ccc(F)cc4F)c2=O)[C@@H]2CN(C3=O)[C@@H](C)CC[C@]23CC(OC)=NO3)cc1 [Compound 99, (3′S,5S,7′R)-10′-((2,4-difluorobenzyl)carbamoyl)-3-methoxy-3′-methyl-1′,11′-dioxo-1′,4′,5′,11′-tetrahydro-3′H,4H,7′H-spiro[isoxazole-5,6′-[2,7]methanopyrido[1,2-a][1,4]diazonin]-12′-yl 4-(tetradecanoyloxy)benzoate]	13 (≈ 0.0156 mM)	≥ 50000	3.03	–	–	–
COC1=NO[C@@]2(CC[C@H](C)N3C[C@H]2n2cc(C(=O)NCc4ccc(F)cc4F)c(=O)c(OC(=O)N(C)c4ncccc4CN(CC(=O)O)C(=O)OCOP(=O)(O)O)c2C3=O)C1 [Compound 59, N-((2-(((((3′S,5S,7′R)-10′-((2,4-difluorobenzyl)carbamoyl)-3-methoxy-3′-methyl-1′,11′-dioxo-1′,4′,5′,11′-tetrahydro-3′H,4H,7′H-spiro[isoxazole-5,6′-[2,7]methanopyrido[1,2-a][1,4]diazonin]-12′-yl)oxy)carbonyl)(methyl)amino)pyridin-3-yl)methyl)-N-(((phosphonooxy)methoxy)carbonyl)glycine]	–	–	–	5280 (≈ 6.01 mM)	10600	1.2
CC1=NO[C@@]2(CC[C@H](C)N3C[C@H]2n2cc(C(=O)NCc4ccc(F)cc4F)c(=O)c(OCOC(=O)N(C)c4ncccc4COC(=O)[C@H](C)N)c2C3=O)C1 [Compound 11, (2-((((((3′S,5S,7′R)-10′-((2,4-difluorobenzyl)carbamoyl)-3,3′-dimethyl-1′,11′-dioxo-1′,4′,5′,11′-tetrahydro-3′H,4H,7′H-spiro[isoxazole-5,6′-[2,7]methanopyrido[1,2-a][1,4]diazonin]-12′-yl)oxy)methoxy)carbonyl)(methyl)amino)pyridin-3-yl)methyl L-alaninate]	2 (≈ 0.00266 mM)	14500	1.9	–	–	–
CC1=NO[C@@]2(CC[C@H](C)N3C[C@H]2n2cc(C(=O)NCc4ccc(F)cc4F)c(=O)c(OC(=O)OCCC(C)(C)c4c(CC(=O)O)cc(C)cc4OP(=O)(O)O)c2C3=O)C1 [Compound 25, 2-(2-(4-(((((3′S,5S,7′R)-10′-((2,4-difluorobenzyl)carbamoyl)-3,3′-dimethyl-1′,11′-dioxo-1′,4′,5′,11′-tetrahydro-3′H,4H,7′H-spiro[isoxazole-5,6′-[2,7]methanopyrido[1,2-a][1,4]diazonin]-12′-yl)oxy)carbonyl)oxy)-2-methylbutan-2-yl)-5-methyl-3-(phosphonooxy)phenyl)acetic acid]	–	–	–	4760 (≈ 5.63 mM)	11600	1.43
CC1=NO[C@@]2(CC[C@H](C)N3C[C@H]2n2cc(C(=O)NCc4ccc(F)cc4F)c(=O)c(OCOC(=O)O[C@@H]4CC[C@H](OP(=O)(O)O)C4)c2C3=O)C1 [Compound 54, (((3′S,5S,7′R)-10′-((2,4-difluorobenzyl)carbamoyl)-3,3′-dimethyl-1′11′-dioxo-1′,4′,5′,11′-tetrahydro-3′H,4H,7′H-spiro[isoxazole-5,6′-[2,7]methanopyrido[1,2-a][1,4]diazonin]-12′-yl)oxy)methyl ((cis)-3-(phosphonooxy)cyclopentyl) carbonate]	5280 (≈ 7.29 mM)	≥ 50000	9.29	–	–	–
CC1=NO[C@@]2(CC[C@H](C)N3C[C@H]2n2cc(C(=O)NCc4ccc(F)cc4F)c(=O)c(OCOC(=O)[C@@H]4[C@H](COP(=O)(O)O)[C@H]4C(=O)O)c2C3=O)C1 [Compound 78, (1R,2R,3R)-2-(((((3′S,5S,7′R)-10′-((2,4-difluorobenzyl)carbamoyl)-3,3′-dimethyl-1′,11′-dioxo-1′,4′,5′,11′-tetrahydro-3′H,4H,7′H-spiro[isoxazole-5,6′-[2,7]methanopyrido[1,2-a][1,4]diazonin]-12′-yl)oxy)methoxy)carbonyl)-3-((phosphonooxy)methyl)cyclopropane-1-carboxylic acid]	5140 (≈ 6.95 mM)	8050	2.2	–	–	–
CC1=NO[C@@]2(CC[C@H](C)N3C[C@H]2n2cc(C(=O)NCc4ccc(F)cc4F)c(=O)c(OCOC(=O)O[C@H]4CCC[C@@H]4OP(=O)(O)O)c2C3=O)C1 [Compound 46, (((3′S,5S,7′R)-10′-((2,4-difluorobenzyl)carbamoyl)-3,3′-dimethyl-1′,11′-dioxo-1′,4′,5′,11′-tetrahydro-3′H,4H,7′H-spiro[isoxazole-5,6′-[2,7]methanopyrido[1,2-a][1,4]diazonin]-12′-yl)oxy)methyl ((1S,2S)-2-(phosphonooxy)cyclopentyl) carbonate]	4850 (≈ 6.69 mM)	15100	2.51	–	–	–
CC1=NO[C@@]2(CC[C@H](C)N3C[C@H]2n2cc(C(=O)NCc4ccc(F)cc4F)c(=O)c(OCc4oc(=O)oc4C)c2C3=O)C1 [Compound 22, (3′S,5S,7′R)—N-(2,4-difluorobenzyl)-3,3′-dimethyl-12′-((5-methyl-2-oxo-1,3-dioxol-4-yl)methoxy)-1′,11′-dioxo-1′,4′,5′,11′-tetrahydro-3′H,4H,7′H-spiro[isoxazole-5,6′-[2,7]methanopyrido[1,2-a][1,4]diazonine]-10′-carboxamide]	90 (≈ 0.15 mM)	12400	1.18	–	–	–
CC1=NO[C@@]2(CC[C@H](C)N3C[C@H]2n2cc(C(=O)NCc4ccc(F)cc4F)c(=O)c(OCOC(=O)OCC4(COP(=O)(O)O)COC(=O)N4C)c2C3=O)C1 (stereo partly drawn) [Compound 55, (((3′S,5S,7′R)-10′-((2,4-difluorobenzyl)carbamoyl)-3,3′-dimethyl-1′,11′-dioxo-1′,4′,5′,11′-tetrahydro-3′H,4H,7′H-spiro[isoxazole-5,6′-[2,7]methanopyrido[1,2-a][1,4]diazonin]-12′-yl)oxy)methyl ((3-methyl-2-oxo-4-((phosphonooxy)methyl)oxazolidin-4-yl)methyl) carbonate]	5520 (≈ 7.05 mM)	12900	2.5	–	–	–
CC1=NO[C@@]2(CC[C@H](C)N3C[C@H]2n2cc(C(=O)NCc4ccc(F)cc4F)c(=O)c(OCOC(=O)OCc4ccc(OP(=O)(O)O)cc4)c2C3=O)C1 [Compound 19, (((3′S,5S,7′R)-10′-((2,4-difluorobenzyl)carbamoyl)-3,3′-dimethyl-1′,11′-dioxo-1′,4′,5′,11′-tetrahydro-3′H,4H,7′H-spiro[isoxazole-5,6′-[2,7]methanopyrido[1,2-a][1,4]diazonin]-12′-yl)oxy)methyl (4-(phosphonooxy)benzyl) carbonate]	–	–	–	390 (≈ 0.522 mM)	10900	0.71
CC1=NO[C@@]2(CC[C@H](C)N3C[C@H]2n2cc(C(=O)NCc4ccc(F)cc4F)c(=O)c(OC(=O)N(C)c4ncccc4COP(=O)(O)O)c2C3=O)C1 [Compound 1, (3′S,5S,7′R)-10′-((2,4-difluorobenzyl)carbamoyl)-3,3′-dimethyl-1′,11′-dioxo-1′,4′,5′,11′-tetrahydro-3′H,4H,7′H-spiro[isoxazole-5,6′-[2,7]methanopyrido[1,2-a][1,4]diazonin]-12′-yl methyl(3-((phosphonooxy)methyl)pyridin-2-yl)carbamate]	–	–	–	4900 (≈ 6.71 mM)	15900	3.48
CCCCCCCCCCCCCC(=O)OCc1ccccc1C(=O)Oc1c2n(cc(C(=O)NCc3ccc(F)cc3F)c1=O)[C@@H]1CN(C2=O)[C@@H](C)CC[C@]12CC(C)=NO2 [Compound 92, (3′S,5S,7′R)-10′-((2,4-difluorobenzyl)carbamoyl)-3,3′-dimethyl-1′,11′-dioxo-1′,4′,5′,11′-tetrahydro-3′H,4H,7′H-spiro[isoxazole-5,6′-[2,7]methanopyrido[1,2-a][1,4]diazonin]-12′-yl 2-((tetradecanoyloxy)methyl)benzoate]	3 (≈ 0.00361 mM)	≥ 50000	4.42	–	–	–
CC1=NO[C@@]2(CC[C@H](C)N3C[C@H]2n2cc(C(=O)NCc4ccc(F)cc4F)c(=O)c(OC(=O)[C@@H]4CCCN4C(=O)OCOP(=O)(O)O)c2C3=O)C1 [Compound 17, 2-((3′S,5S,7′R)-10′-((2,4-difluorobenzyl)carbamoyl)-3,3′-dimethyl-1′,11′-dioxo-1′,4′,5′,11′-tetrahydro-3′H,4H,7′H-spiro[isoxazole-5,6′-[2,7]methanopyrido[1,2-a][1,4]diazonin]-12′-yl) 1-((phosphonooxy)methyl) (2S)-pyrrolidine-1,2-dicarboxylate]	2540 (≈ 3.45 mM)	13000	0.93	–	–	–
CC1=NO[C@@]2(CC[C@H](C)N3C[C@H]2n2cc(C(=O)NCc4ccc(F)cc4F)c(=O)c(OCOC(=O)N(C)c4ncccc4COP(=O)(O)O)c2C3=O)C1 [Compound 2, (((3′S,5S,7′R)-10′-((2,4-difluorobenzyl)carbamoyl)-3,3′-dimethyl-1′,11′-dioxo-1′,4′,5′,11′-tetrahydro-3′H,4H,7′H-spiro[isoxazole-5,6′-[2,7]methanopyrido[1,2-a][1,4]diazonin]-12′-yl)oxy)methyl methyl(3-((phosphonooxy)methyl)pyridin-2-yl)carbamate]	4950 (≈ 6.51 mM)	10200	1.49	–	–	–
CC1=NO[C@@]2(CC[C@H](C)N3C[C@H]2n2cc(C(=O)NCc4ccc(F)cc4F)c(=O)c(OC(=O)N(C)c4ncccc4CN(CCO)C(=O)OCOP(=O)(O)O)c2C3=O)C1 [Compound 35, (phosphonooxy)methyl ((2-(((((3′S,5S,7′R)-10′-((2,4-difluorobenzyl)carbamoyl)-3,3′-dimethyl-1′,11′-dioxo-1′,4′,5′,11′-tetrahydro-3′H,4H,7′H-spiro[isoxazole-5,6′-[2,7]methanopyrido[1,2-a][1,4]diazonin]-12′-yl)oxy)carbonyl)(methyl)amino)pyridin-3-yl)methyl)(2-hydroxyethyl)carbamate]	–	–	–	4460 (≈ 5.26 mM)	11600	2.04
